Data reported in BindingDB's records for doi:10.1016/j.bmc.2013.02.056 (Ludwig-Maximilians-University Munich, 2013).

These compounds were tested against T1, Sodium- and chloride-dependent GABA transporter 3 (Mus musculus, UniProt P31650) (assay: Inhibition of mouse GAT3 expressed in HEK cells assessed as inhibition of [3H]-GABA uptake after 25 mins by liquid scintillation counting analysis).
T1 sequence (P31650 whole entry): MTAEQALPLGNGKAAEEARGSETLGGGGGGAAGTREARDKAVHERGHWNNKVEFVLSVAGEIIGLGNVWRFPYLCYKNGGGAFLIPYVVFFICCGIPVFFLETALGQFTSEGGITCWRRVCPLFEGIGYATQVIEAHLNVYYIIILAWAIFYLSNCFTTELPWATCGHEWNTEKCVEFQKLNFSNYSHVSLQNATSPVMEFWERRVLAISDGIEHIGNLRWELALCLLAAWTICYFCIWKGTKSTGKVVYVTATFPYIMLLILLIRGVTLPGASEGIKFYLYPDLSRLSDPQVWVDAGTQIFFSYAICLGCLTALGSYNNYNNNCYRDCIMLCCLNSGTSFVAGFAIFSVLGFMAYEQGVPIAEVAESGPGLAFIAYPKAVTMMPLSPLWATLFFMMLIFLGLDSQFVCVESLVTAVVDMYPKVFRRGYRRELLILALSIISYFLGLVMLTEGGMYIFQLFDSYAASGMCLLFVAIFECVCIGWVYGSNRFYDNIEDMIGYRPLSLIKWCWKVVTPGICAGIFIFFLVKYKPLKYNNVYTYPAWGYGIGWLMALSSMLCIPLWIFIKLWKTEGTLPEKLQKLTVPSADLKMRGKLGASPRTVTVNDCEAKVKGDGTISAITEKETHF

Structure (SMILES) | IC50
O=C(c1cccc(F)c1)c1ccc(F)cc1/C=C/OCCN1CCCC(C(=O)O)C1 (centres undefined) | 339 µM
O=C(O)C1CCCN(CCO/C=C\c2cc(F)ccc2Cc2ccc(F)cc2)C1 (centres undefined) | 50.1 µM
O=C(c1ccccc1F)c1cc(F)ccc1/C=C/OCCN1CCCC(C(=O)O)C1 (centres undefined) | 372 µM
O=C(O)C1CCCN(CCO/C=C/c2ccccc2Cc2ccccc2)C1 (centres undefined) | 37.2 µM
O=C(O)[C@@H]1CCCN(CCC=C(c2ccccc2)c2ccccc2)C1 [(R)-1-(4,4-Diphenyl-but-3-enyl)-piperidine-3-carboxylic acid] | 195 µM

More lines, now with the values ahead:

IC50 | Structure (SMILES)
28.2 µM | O=C(O)C1CCCN(CCO/C=C\c2cc(F)ccc2Cc2ccccc2F)C1 (centres undefined)
19.5 µM | O=C(O)C1CCCN(CCO/C=C\c2ccc(F)cc2Cc2ccccc2F)C1 (centres undefined)
34.7 µM | O=C(O)C1CCCN(CCO/C=C\c2ccc(F)cc2Cc2ccc(F)cc2)C1 (centres undefined)
20 µM | O=C(O)C1CCCN(CCO/C=C\c2cc(F)ccc2Cc2cccc(F)c2)C1 (centres undefined)

What follows are compounds tested against T2, Sodium- and chloride-dependent GABA transporter 2 (Mus musculus, UniProt P31649) (assay: Inhibition of mouse GAT2 expressed in HEK cells assessed as inhibition of [3H]-GABA uptake after 25 mins by liquid scintillation counting analysis).
T2 sequence (P31649 whole entry): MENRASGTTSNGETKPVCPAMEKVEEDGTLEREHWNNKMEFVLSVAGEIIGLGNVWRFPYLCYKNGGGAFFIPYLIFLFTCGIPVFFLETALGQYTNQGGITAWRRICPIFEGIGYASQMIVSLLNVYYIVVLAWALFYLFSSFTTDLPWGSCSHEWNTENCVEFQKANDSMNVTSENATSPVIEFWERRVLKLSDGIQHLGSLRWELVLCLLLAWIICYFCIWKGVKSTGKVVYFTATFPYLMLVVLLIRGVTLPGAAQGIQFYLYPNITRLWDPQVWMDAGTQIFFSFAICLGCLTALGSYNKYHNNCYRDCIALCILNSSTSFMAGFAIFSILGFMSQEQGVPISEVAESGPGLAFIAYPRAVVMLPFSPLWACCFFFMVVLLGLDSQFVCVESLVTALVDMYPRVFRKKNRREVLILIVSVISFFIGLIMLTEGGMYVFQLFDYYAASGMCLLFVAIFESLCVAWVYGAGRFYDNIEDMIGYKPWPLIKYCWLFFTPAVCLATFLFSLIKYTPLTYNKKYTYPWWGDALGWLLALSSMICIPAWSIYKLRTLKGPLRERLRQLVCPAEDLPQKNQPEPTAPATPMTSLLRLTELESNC

IC50 | Structure (SMILES)
60.3 µM | O=C(c1cccc(F)c1)c1ccc(F)cc1/C=C/OCCN1CCCC(C(=O)O)C1 (centres undefined)
91.2 µM | O=C(O)C1CCCN(CCO/C=C\c2cc(F)ccc2Cc2ccc(F)cc2)C1 (centres undefined)
66.1 µM | O=C(c1ccccc1F)c1cc(F)ccc1/C=C\OCCN1CCCC(C(=O)O)C1 (centres undefined)
141 µM | O=C(c1ccccc1F)c1cc(F)ccc1/C=C/OCCN1CCCC(C(=O)O)C1 (centres undefined)
372 µM | O=C(O)[C@@H]1CCCN(CCC=C(c2ccccc2)c2ccccc2)C1 [(R)-1-(4,4-Diphenyl-but-3-enyl)-piperidine-3-carboxylic acid]
